These results are taken from PMC6270751, “N-Substituted 5-Amino-6-methylpyrazine-2,3-dicarbonitriles: Microwave-Assisted Synthesis and Biological Properties” (Molecules, 2014).

≈ marks a conversion by molar mass, not a printed value. Where “and” joins values, the source holds several entries; their conditions need not be identical. Identical values can stand only once. Like-named read-outs stand apart in the source and are kept apart here. Where only a bound is given, the exact number is not on record here.

The test system of data set [1] is Trichophyton mentagrophytes 445. In words: Antifungal in vitro screening, microdilution broth method. In kind it is cell-based. The note with it: for MIC: Trichophyton mentagrophytes, 445, RPMI 1640, pH 7.0, 35 °C, read-out: MIC against Trichophyton mentagrophytes; for activity against Trichophyton mentagrophytes: result in words. The method, then: Antifungal evaluation was also accomplished with microdilution broth method. On the contrary, there was used RPMI 1640 broth with glutamine as medium and conditions were humid and dark atmosphere, pH 7.0 (buffered with 3-morpholinopropane-1-sulfonic acid) and 35 °C. Eight fungal strains were used (Candida albicans ATCC 44859, Candida tropicalis 156, Candida krusei E28, Candida glabrata 20/I, Trichosporon asahii 1188, Aspergillus fumigatus 231, Absidia corymbifera 272, Trichophyton mentagrophytes 445) together with 4 antimycotic standards amphotericin B, voriconazole, nystatin and fluconazole.
Background: In broth dilution the organism is exposed to a series of concentrations in liquid medium.

The subject of data set [2] is photosynthetic electron transport (PET) in spinach chloroplasts. As to the kind of experiment: Inhibition of photosynthetic electron transport (PET) in spinach chloroplasts, DCPIP photoreduction. The format is biochemical, Spinacia oleracea L. The note with it: for IC50 / IC50 PET inhibition in spinach chloroplasts: chlorophyll 30 mg/L, phosphate buffer pH 7.2. As for the experimental part: Chloroplasts were prepared from spinach (Spinacia oleracea L.) according to Masarovicova and Kralova. The inhibition of photosynthetic electron transport (PET) in spinach chloroplasts was determined spectrophotometrically (Genesys 6, Thermo Scientific, Madison, WI, USA) using an artificial electron acceptor 2,6-dichlorophenol-indophenol (DCPIP) according to Kralova et al. and the rate of photosynthetic electron transport (PET) was monitored as a photo-reduction of DCPIP. The measurements were carried out in a phosphate buffer (0.02 mol/L, pH 7.2) containing sucrose (0.4 mol/L), MgCl2 (0.005 mol/L) and NaCl (0.015 mol/L). The chlorophyll content was 30 mg/L in these experiments and the samples were irradiated (~100 W/m^2) from a 10 cm distance with halogen lamp (250 W) using a 4 cm water filter to prevent warming of the samples (suspension temperature […]). The studied compounds were dissolved in DMSO due to their limited water solubility. […] The inhibitory efficiency of the studied compounds was expressed as the IC50 values, i.e., molar concentration of the compounds causing 50% decrease in the oxygen evolution relative to the untreated control.

For data set [3], the system named is M. tuberculosis H37Rv CNCTC My 331/88. In words: Antimycobacterial in vitro screening, microdilution broth panel method, Alamar Blue. The format is cell-based, Mycobacterium tuberculosis. The note with it: 37 °C; for MIC: Mycobacterium tuberculosis, H37RV, 336 h, pH 6, Sula's medium pH 6.0, 14 days; for MIC M.tuberculosis H37Rv: Sula's medium pH 6.0, 14 days.
A short description of data set [4]: Lipophilicity log k by RP-HPLC. The note with it: for log k: RP-HPLC capacity factor, C18, MeOH 70%/H2O 30%, 30 °C; for π: π = log k(substituted) – log k(unsubstituted).
Excerpt: Experimental lipophilicity parameter log k was ascertained using an Agilent Technologies 1200 SL HPLC system with a SL G1315C Diode-Array Detector, ZORBAX XDB-C18 5 μm, 4 × 4 mm, Part No. 7995118-504 chromatographic pre-column and ZORBAX Eclipse XDB-C18 5 μm, 4.6 × 250 mm, Part No. 7995118-585 column (Agilent Technologies Inc., Colorado Springs, CO, USA). The separation process was controlled by Agilent ChemStation, version B.04.02 extended by spectral module (Agilent Technologies Inc.). A solution of MeOH (HPLC grade, 70%) and H2O (HPLC-Milli-Q Grade, 30%) was used as mobile phase. The total flow of the column was 1.0 mL/min, injection 20 μL, column temperature 30 °C. Detection wavelength λ= 210 nm and monitor wavelength λ= 270 nm were chosen for this measurement. The KI methanol solution was used for the dead time (TD) determination. Retention times (TR) of synthesized compounds were measured in minutes. The capacity factors k were calculated using Microsoft Excel according to formula k = (TR − TD)/TD, where TR is the retention time of the solute and TD denotes the dead time obtained via an unretained analyte. Log k, calculated from the capacity factor k, is used as the lipophilicity index converted to log P scale.
For data set [5], the system named is M. kansasii CNCTC My 235/80. In words: Antimycobacterial in vitro screening, non-tuberculosis strain M. kansasii. The format is cell-based, Mycobacterium kansasii. The note with it: result in words.
The subject of another data set is M. avium CNCTC My 152/73. In words: Antimycobacterial in vitro screening, non-tuberculosis strain M. avium. The format is cell-based, Mycobacterium avium. The note with it: result in words.
Data set [6] relates to photosynthetic electron transport (PET) in spinach chloroplasts. Details: method as in earlier work. The note with it: DCMU standard; read-out: IC50 PET inhibition in spinach chloroplasts (standard); cited from earlier work.

As a reminder, the MIC is the least concentration at which growth counts as inhibited. One may read the IC50 as the midpoint of a concentration-inhibition curve. Regarding `Cc1nc(C#N)c(C#N)nc1NCc1ccccc1F` [Compound 10, 5-[(2-Fluorobenzyl)amino]-6-methylpyrazine-2,3-dicarbonitrile], in data set [1], the MIC amounted to 500 µM (≈ 134 µg/mL) and the “activity against Trichophyton mentagrophytes” value was “insignificant activity”. For the same compound, the IC50 in data set [2] turned out to be 196 µM. In data set [3], this compound displayed an MIC of 12.5 µg/mL (≈ 46.8 µM). In data set [4], the log k is given as 0.3042 and the π came to 0.0048.
In data set [2], `Cc1nc(C#N)c(C#N)nc1NCc1cccc([N+](=O)[O-])c1` [Compound 14, 5-Methyl-6-[(3-nitrobenzyl)amino]pyrazine-2,3-dicarbonitrile] displayed an IC50 of 487 µM. In data set [3], this compound returned an MIC of 12.5 µg/mL (≈ 42.5 µM). In data set [4], the log k is recorded as 0.1808 and the π was −0.1186.
Compound `Cc1nc(C#N)c(C#N)nc1NCc1ccc(Cl)c(Cl)c1` [Compound 3, 5-[(3,4-Dichlorobenzyl)amino]-6-methylpyrazine-2,3-dicarbonitrile] yielded an IC50 in data set [2] of 16.4 µM. Besides, the “PET inhibitory activity relative to DCMU (times lower)” value in data set [2] (ratio of IC50 to standard DCMU) was found to be 8.6 times. The same compound registered an MIC in data set [3] of 6.25 µg/mL (≈ 19.6 µM). In data set [4], this compound had a log k of 0.7538 and a π of 0.4544.
Take `Cc1nc(C#N)c(C#N)nc1NCc1cccc(Cl)c1` [Compound 8, 5-[(3-Chlorobenzyl)amino]-6-methylpyrazine-2,3-dicarbonitrile]: the IC50 in data set [2] amounted to 57.4 µM. Moreover, the MIC in data set [3] amounted to 12.5 µg/mL (≈ 44.1 µM). In data set [4], this compound registered a log k of 0.5172 and a π of 0.2178.
Consider `Cc1nc(C#N)c(C#N)nc1NCc1ccc(Cl)cc1` [Compound 15, 5-[(4-Chlorobenzyl)amino]-6-methylpyrazine-2,3-dicarbonitrile], for which the “activity against Trichophyton mentagrophytes” value in data set [1] is listed as “insignificant activity”. The midpoint of inhibition in data set [2], the IC50, lay at 86.5 µM. The compound further gave an MIC in data set [3] of 12.5 µg/mL (≈ 44.1 µM). In data set [4], the log k is 0.5384 and the π came to 0.2390.
Compound `Cc1ccccc1CNc1nc(C#N)c(C#N)nc1C` [Compound 1, 5-Methyl-6-[(2-methylbenzyl)amino]pyrazine-2,3-dicarbonitrile] registered an IC50 in data set [2] of 114 µM. In data set [3], the MIC was > 100 µg/mL and the “MIC M.tuberculosis H37Rv” value was >100 µg/mL. For the same compound, in data set [4], the log k came out at 0.4668 and the π is reported as 0.1674.
`Cc1nc(C#N)c(C#N)nc1NCc1ccc(N)cc1` [Compound 7, 5-[(4-Aminobenzyl)amino]-6-methylpyrazine-2,3-dicarbonitrile]: in data set [1], the MIC was determined as 500 µM (≈ 132 µg/mL) and the “activity against Trichophyton mentagrophytes” value was “insignificant activity”. Also, the “IC50 PET inhibition in spinach chloroplasts” value (from here on “IC50 PET inhibition”) in data set [2] was “inactive”. Besides, it took 25 µg/mL (≈ 94.6 µM) to inhibit growth in data set [3] (MIC). In data set [4], the log k was −0.2014 and the π is given as −0.5008.
`Cc1nc(C#N)c(C#N)nc1NCc1ccc(C(F)(F)F)cc1` [Compound 11, 5-Methyl-6-{[4-(trifluoromethyl)benzyl]amino}pyrazine-2,3-dicarbonitrile] yielded an IC50 in data set [2] of 39.6 µM. In data set [3], this compound showed an MIC of 6.25 µg/mL (≈ 19.7 µM). The “activity against M. kansasii” value in data set [5] is reported as “active”. In data set [4], this compound gave a log k of 0.5626 and a π of 0.2632. The “activity against M. avium 152” value in the data set on M. avium CNCTC My 152/73 was “active”.
In turn, `Cc1nc(C#N)c(C#N)nc1NCc1cccc(C(F)(F)F)c1` [Compound 2, 5-Methyl-6-{[3-(trifluoromethyl)benzyl]amino}pyrazine-2,3-dicarbonitrile] gave an IC50 in data set [2] of 37.7 µM. This compound also gave an MIC in data set [3] of 12.5 µg/mL (≈ 39.4 µM). In data set [4], this compound showed a log k of 0.5369 and a π of 0.2375.
Consider `NNC(=O)c1ccncc1` [INH, isoniazid, reference compound], for which, in data set [3], the MIC worked out at 1.56 µg/mL (≈ 11.4 µM).
`Cc1nc(C#N)c(C#N)nc1NCc1ccccc1Cl` [Compound 9, 5-[(2-Chlorobenzyl)amino]-6-methylpyrazine-2,3-dicarbonitrile]: in data set [2], the IC50 came to 79 µM. In data set [3], this compound had an MIC of 6.25 µg/mL (≈ 22 µM). Moreover, in data set [4], the log k was found to be 0.4663 and the π is 0.1669.
As to `Cc1nc(C#N)c(C#N)nc1NCc1ccccc1` [Compound 6, 5-(Benzylamino)-6-methylpyrazine-2,3-dicarbonitrile], the “IC50 PET inhibition” value in data set [2] was “inactive”. Inhibition of growth in data set [3] (MIC) required 25 µg/mL (≈ 100 µM). In data set [4], this compound gave a log k of 0.2994 and a π of 0.
For the compound `NC(=O)c1cnccn1` [PZA, pyrazinamide, reference compound], the MIC in data set [3] came to 12.5 µg/mL (≈ 102 µM).
Consider `Cc1ccc(CNc2nc(C#N)c(C#N)nc2C)cc1` [Compound 4, 5-Methyl-6-[(4-methylbenzyl)amino]pyrazine-2,3-dicarbonitrile], for which, in data set [2], half-maximal inhibition (IC50) was put at 105 µM. The compound further came in with an MIC in data set [3] of 25 µg/mL (≈ 94.9 µM). Also, in data set [4], the log k was found to be 0.5157 and the π came to 0.2163.
In data set [2], `COc1ccc(CNc2nc(C#N)c(C#N)nc2C)cc1` [Compound 5, 5-[(4-Methoxybenzyl)amino]-6-methylpyrazine-2,3-dicarbonitrile] returned an IC50 of 465 µM. In data set [3], the MIC is > 100 µg/mL and the “MIC M.tuberculosis H37Rv” value was >100 µg/mL. In data set [4], the log k is 0.2820 and the π is on record as −0.0174.
In the case of `Cc1nc(C#N)c(C#N)nc1NCc1ccccc1C(F)(F)F` [Compound 12, 5-Methyl-6-{[2-(trifluoromethyl)benzyl]amino}pyrazine-2,3-dicarbonitrile], the MIC in data set [1] turned out to be 125 µM (≈ 39.7 µg/mL). Also, the IC50 in data set [2] turned out to be 71.6 µM. The compound further came in with an MIC in data set [3] of 12.5 µg/mL (≈ 39.4 µM). Further, the “activity against M. kansasii” value in data set [5] is recorded as “active”. In data set [4], this compound yielded a log k of 0.4865 and a π of 0.1871. The “activity against M. avium 152” value in the data set on M. avium CNCTC My 152/73 is listed as “active”.
On to `COc1ccc(CNc2nc(C#N)c(C#N)nc2C)c(OC)c1` [Compound 13, 5-[(2,4-Dimethoxybenzyl)amino]-6-methylpyrazine-2,3-dicarbonitrile], for which, in data set [2], the “IC50 PET inhibition” value is “inactive”. Also, 25 µg/mL (≈ 80.8 µM) was the least that counted as inhibitory in data set [3] (MIC). In data set [4], the log k came out at 0.3699 and the π was 0.0705.
As for `CN(C)C(=O)Nc1ccc(Cl)c(Cl)c1` [DCMU, 3-(3,4-dichlorophenyl)-1,1-dimethylurea], the IC50 in data set [6] is ~1.9 µM and 1.9 µM.
